Test results from the NIST ThermoML archive (doi:10.1016/j.jct.2015.02.008).

Assays:
[1] = Molar enthalpy of transition or fusion; settings: Crystal; Adiabatic calorimetry
[2] = for molar entropy: 101.33 kPa, Vacuum adiabatic calorimetry
[3] = molar heat capacity at saturation pressure; settings: Vacuum adiabatic calorimetry

Oc1cccc2ccccc12 [1-naphthol]
Settings	Molar enthalpy of transition or fusion [kcal/mol]
[1]	5.798

Settings	Triple point temperature [K]	molar entropy [J/K/mol]	molar heat capacity [J/K/mol]
[2], 5 K, Crystal	–	0.1164	–
[2], 10 K, Crystal	–	1.006	–
[2], 20 K, Crystal	–	5.712	–
[2], 30 K, Crystal	–	12.49	–
[2], 40 K, Crystal	–	19.88	–
[2], 50 K, Crystal	–	27.32	–
[2], 60 K, Crystal	–	34.57	–
[2], 70 K, Crystal	–	41.6	–
[2], 80 K, Crystal	–	48.37	–
[2], 90 K, Crystal	–	54.94	–
[2], 100 K, Crystal	–	61.3	–
[2], 120 K, Crystal	–	73.57	–
[2], 140 K, Crystal	–	85.45	–
[2], 160 K, Crystal	–	97.07	–
[2], 180 K, Crystal	–	108.59	–
[2], 200 K, Crystal	–	120.05	–
[2], 220 K, Crystal	–	131.53	–
[2], 240 K, Crystal	–	143.02	–
[2], 260 K, Crystal	–	154.55	–
[2], 280 K, Crystal	–	166.13	–
[2], 298.15 K, Crystal	–	176.67	–
[2], 300 K, Crystal	–	177.75	–
[2], 320 K, Crystal	–	189.4	–
[2], 340 K, Crystal	–	201.04	–
[2], 360 K, Crystal	–	212.69	–
[2], 368.49 K, Crystal	–	217.66	–
[2], 368.49 K, Liquid	–	283.48	–
[2], 380 K, Liquid	–	292.12	–
[2], 400 K, Liquid	–	306.76	–
[2], 420 K, Liquid	–	320.97	–
[2], 440 K, Liquid	–	334.8	–
[2], Crystal, Adiabatic calorimetry	368.49	–	–
[3], 4.908 K, Crystal	–	–	0.3991
[3], 5 K, Crystal	–	–	0.4074
[3], 5.887 K, Crystal	–	–	0.6735
[3], 6.773 K, Crystal	–	–	0.9894
[3], 7.696 K, Crystal	–	–	1.413
[3], 8.736 K, Crystal	–	–	1.995
[3], 9.852 K, Crystal	–	–	2.752
[3], 10 K, Crystal	–	–	2.86
[3], 11.02 K, Crystal	–	–	3.658
[3], 12.26 K, Crystal	–	–	4.664
[3], 13.57 K, Crystal	–	–	5.837
[3], 14.97 K, Crystal	–	–	7.2
[3], 16.55 K, Crystal	–	–	8.755
[3], 18.3 K, Crystal	–	–	10.52
[3], 20 K, Crystal	–	–	12.18
[3], 20.23 K, Crystal	–	–	12.41
[3], 22.38 K, Crystal	–	–	14.54
[3], 24.77 K, Crystal	–	–	16.86
[3], 27.44 K, Crystal	–	–	19.4
[3], 30 K, Crystal	–	–	21.7
[3], 30.38 K, Crystal	–	–	22.03
[3], 33.63 K, Crystal	–	–	24.81
[3], 37.26 K, Crystal	–	–	27.77
[3], 40 K, Crystal	–	–	29.84
[3], 41.28 K, Crystal	–	–	30.77
[3], 45.76 K, Crystal	–	–	34.06
[3], 50 K, Crystal	–	–	36.83
[3], 50.77 K, Crystal	–	–	37.31
[3], 51.97 K, Crystal	–	–	38.07
[3], 56.32 K, Crystal	–	–	40.7
[3], 56.46 K, Crystal	–	–	40.78
[3], 60 K, Crystal	–	–	42.91
[3], 61.85 K, Crystal	–	–	43.99
[3], 68.38 K, Crystal	–	–	47.41
[3], 70 K, Crystal	–	–	48.25
[3], 75.62 K, Crystal	–	–	51.08
[3], 80 K, Crystal	–	–	53.33
[3], 83.14 K, Crystal	–	–	54.91
[3], 90 K, Crystal	–	–	58.16
[3], 91.41 K, Crystal	–	–	58.81
[3], 100 K, Crystal	–	–	62.77
[3], 100.48 K, Crystal	–	–	62.99
[3], 110.08 K, Crystal	–	–	67.46
[3], 119.95 K, Crystal	–	–	72.21
[3], 120 K, Crystal	–	–	72.23
[3], 130.14 K, Crystal	–	–	77.14
[3], 140 K, Crystal	–	–	82.08
[3], 140.31 K, Crystal	–	–	82.24
[3], 150.42 K, Crystal	–	–	87.34
[3], 160 K, Crystal	–	–	92.43
[3], 160.43 K, Crystal	–	–	92.66
[3], 170.36 K, Crystal	–	–	98.04
[3], 180 K, Crystal	–	–	103.34
[3], 180.29 K, Crystal	–	–	103.5
[3], 190.33 K, Crystal	–	–	109.13
[3], 200 K, Crystal	–	–	114.64
[3], 200.45 K, Crystal	–	–	114.9
[3], 210.56 K, Crystal	–	–	120.76
[3], 220 K, Crystal	–	–	126.26
[3], 220.64 K, Crystal	–	–	126.63
[3], 230.69 K, Crystal	–	–	132.62
[3], 240 K, Crystal	–	–	138.13
[3], 240.71 K, Crystal	–	–	138.54
[3], 250.73 K, Crystal	–	–	144.61
[3], 260 K, Crystal	–	–	150.24
[3], 260.74 K, Crystal	–	–	150.69
[3], 270.62 K, Crystal	–	–	156.67
[3], 280 K, Crystal	–	–	162.4
[3], 280.51 K, Crystal	–	–	162.71
[3], 290.52 K, Crystal	–	–	168.83
[3], 298.15 K, Crystal	–	–	173.51
[3], 300 K, Crystal	–	–	174.64
[3], 300.53 K, Crystal	–	–	174.97
[3], 310.57 K, Crystal	–	–	180.81
[3], 320 K, Crystal	–	–	186.29
[3], 320.58 K, Crystal	–	–	186.63
[3], 331.02 K, Crystal	–	–	192.65
[3], 340 K, Crystal	–	–	197.95
[3], 341.47 K, Crystal	–	–	198.62
[3], 351.79 K, Crystal	–	–	205.33
[3], 360 K, Crystal	–	–	210.16
[3], 360.7 K, Crystal	–	–	210.52
[3], 368.49 K, Crystal	–	–	215.56
[3], 368.49 K, Liquid	–	–	279.12
[3], 375.44 K, Liquid	–	–	281.15
[3], 375.53 K, Liquid	–	–	281.2
[3], 380 K, Liquid	–	–	282.47
[3], 382.75 K, Liquid	–	–	283.25
[3], 389.88 K, Liquid	–	–	285.37
[3], 400 K, Liquid	–	–	288.35
[3], 405.81 K, Liquid	–	–	290.05
[3], 420 K, Liquid	–	–	294.27
[3], 423.59 K, Liquid	–	–	295.34
[3], 438.9 K, Liquid	–	–	299.86
[3], 440 K, Liquid	–	–	300.19

[2], Liquid
Settings	mass density [kg/m3]	vapor or sublimation pressure [kPa]
369.98 K, Inclined piston gauge	–	0.1033
373.12 K, Inclined piston gauge	–	0.1259
374.97 K, Inclined piston gauge	–	0.1406
383.13 K, Inclined piston gauge	–	0.2221
384.98 K, Inclined piston gauge	–	0.2455
393 K, Pycnometric method	1063	–
393.13 K, Inclined piston gauge	–	0.3779
394.98 K, Inclined piston gauge	–	0.4163
403.12 K, Inclined piston gauge	–	0.6229
404.96 K, Inclined piston gauge	–	0.6815
408.13 K, Inclined piston gauge	–	0.7902
413.12 K, Inclined piston gauge	–	0.9955
414.97 K, Inclined piston gauge	–	1.085
418.12 K, Inclined piston gauge	–	1.249
423.12 K, Inclined piston gauge	–	1.551
424.96 K, Inclined piston gauge	–	1.68
429.2 K, Twin ebulliometer	–	2
429.96 K, Inclined piston gauge	–	2.071
434.97 K, Inclined piston gauge	–	2.537
436.27 K, Twin ebulliometer	–	2.666
439.96 K, Inclined piston gauge	–	3.091
446.77 K, Twin ebulliometer	–	4
454.6 K, Twin ebulliometer	–	5.333
466.26 K, Twin ebulliometer	–	7.999
475.01 K, Twin ebulliometer	–	10.67
482.08 K, Twin ebulliometer	–	13.33
489.42 K, Twin ebulliometer	–	16.66
495.53 K, Twin ebulliometer	–	19.93
503.55 K, Twin ebulliometer	–	25.02
511.63 K, Twin ebulliometer	–	31.17
519.75 K, Twin ebulliometer	–	38.56
527.93 K, Twin ebulliometer	–	47.37
536.16 K, Twin ebulliometer	–	57.81
544.44 K, Twin ebulliometer	–	70.11
552.77 K, Twin ebulliometer	–	84.53
561.14 K, Twin ebulliometer	–	101.32
569.59 K, Twin ebulliometer	–	120.78
